Values of other authors as cited in patent publication US20240016760A1, “Multivitamin” (priority 2022, published 2024).

Experiments:
CFTR protein = details: patients with CF
CFTR Chloride channels = CFTR Chloride channels (Homo sapiens, UniProt P13569); details: increase from zero, at the appropriate concentrations
CFTR Chloride channels, sequence (P13569 whole entry): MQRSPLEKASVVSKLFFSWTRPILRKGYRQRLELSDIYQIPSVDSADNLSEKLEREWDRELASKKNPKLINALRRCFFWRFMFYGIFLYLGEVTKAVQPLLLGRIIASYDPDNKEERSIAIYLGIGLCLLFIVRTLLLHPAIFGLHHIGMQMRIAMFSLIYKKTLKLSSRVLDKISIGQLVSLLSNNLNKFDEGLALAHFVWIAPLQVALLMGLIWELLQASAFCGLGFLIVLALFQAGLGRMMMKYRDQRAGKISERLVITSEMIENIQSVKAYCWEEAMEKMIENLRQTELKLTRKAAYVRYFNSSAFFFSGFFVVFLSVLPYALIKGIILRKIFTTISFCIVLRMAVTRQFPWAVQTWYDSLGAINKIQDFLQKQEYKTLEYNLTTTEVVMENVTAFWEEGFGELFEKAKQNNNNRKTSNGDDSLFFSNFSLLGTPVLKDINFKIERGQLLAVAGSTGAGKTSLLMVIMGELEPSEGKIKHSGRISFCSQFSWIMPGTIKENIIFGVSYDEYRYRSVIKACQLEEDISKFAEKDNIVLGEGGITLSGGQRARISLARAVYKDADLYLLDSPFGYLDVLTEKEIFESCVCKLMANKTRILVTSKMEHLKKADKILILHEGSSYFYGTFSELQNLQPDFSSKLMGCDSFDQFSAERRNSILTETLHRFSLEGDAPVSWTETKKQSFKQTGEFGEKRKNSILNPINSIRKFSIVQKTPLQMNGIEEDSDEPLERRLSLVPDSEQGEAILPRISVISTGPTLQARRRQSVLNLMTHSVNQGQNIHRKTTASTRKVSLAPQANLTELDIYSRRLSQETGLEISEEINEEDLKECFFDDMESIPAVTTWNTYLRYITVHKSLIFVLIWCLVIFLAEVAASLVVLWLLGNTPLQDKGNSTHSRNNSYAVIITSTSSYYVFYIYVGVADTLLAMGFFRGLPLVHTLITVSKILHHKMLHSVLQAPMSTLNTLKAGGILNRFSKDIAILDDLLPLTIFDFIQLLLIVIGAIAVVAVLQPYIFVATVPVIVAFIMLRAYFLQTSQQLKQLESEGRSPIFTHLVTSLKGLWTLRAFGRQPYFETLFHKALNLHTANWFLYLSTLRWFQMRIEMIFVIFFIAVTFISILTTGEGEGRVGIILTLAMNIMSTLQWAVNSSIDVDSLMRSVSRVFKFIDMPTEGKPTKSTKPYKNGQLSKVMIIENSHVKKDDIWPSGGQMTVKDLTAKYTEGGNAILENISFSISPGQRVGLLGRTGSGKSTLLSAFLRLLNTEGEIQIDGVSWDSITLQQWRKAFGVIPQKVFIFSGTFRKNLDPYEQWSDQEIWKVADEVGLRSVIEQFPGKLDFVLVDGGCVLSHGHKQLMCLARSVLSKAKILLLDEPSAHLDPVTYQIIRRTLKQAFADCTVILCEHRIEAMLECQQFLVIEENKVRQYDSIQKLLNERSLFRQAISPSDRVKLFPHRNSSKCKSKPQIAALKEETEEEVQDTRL

Question: For CC(C)(C)c1cc(C(C)(C)C)c(NC(=O)c2c[nH]c3ccccc3c2=O)cc1O [Ivacaftor, ivacaftor], which “average increase in lung function (as measured by FEV1)” value (CFTR protein) is on record?
Answer: ~2%

Question: Which “average open probability of CFTR Chloride channels” value (CFTR Chloride channels) does the source give for O=C1O[C@H]([C@@H](O)CO)C(O)=C1O [vitamin C] here?
Answer: 0.21 (+0.08)
